Measurements published in ChEMBL document CHEMBL3108774, “Azaindoles: noncovalent DprE1 inhibitors from scaffold morphing efforts, kill Mycobacterium tuberculosis and are efficacious in vivo” (J Med Chem, 2013).
≈ marks a conversion by molar mass, not a printed value.

Columns and labels:
[1] = Inhibition of Mycobacterium smegmatis thioredoxin 6xHis-tagged decaprenylphosphoryl-beta-D-ribose2'-epimerase1 overexpressed in Escherichia coli rossetta cells using farnesyl-phosphoryl-beta-D-ribofuranose as substrate; set-up: species or system Mycolicibacterium smegmatis
[2] = tested on: Mycobacterium tuberculosis; test: Antimicrobial activity against Mycobacterium tuberculosis H37Rv ATCC 27294 assessed as growth inhibition after 5 days by microdilution method; type: functional; settings: H37Rv ATCC 27294, 120 h
Cytochrome P450 2D6 = Cytochrome P450 2D6 (Homo sapiens, UniProt P10635); test: Inhibition of human CYP2D6; type: ADME
Cytochrome P450 2C19 = Cytochrome P450 2C19 (Homo sapiens, UniProt P33261); test: Inhibition of human CYP2C19; type: ADME
Cytochrome P450 2C9 = Cytochrome P450 2C9 (Homo sapiens, UniProt P11712); test: Inhibition of human CYP2C9; type: ADME
Cytochrome P450 1A2 = target: T1, Cytochrome P450 1A2 (Homo sapiens, UniProt P05177); test: Inhibition of human CYP1A2; type: ADME
T1 sequence (P05177 whole entry): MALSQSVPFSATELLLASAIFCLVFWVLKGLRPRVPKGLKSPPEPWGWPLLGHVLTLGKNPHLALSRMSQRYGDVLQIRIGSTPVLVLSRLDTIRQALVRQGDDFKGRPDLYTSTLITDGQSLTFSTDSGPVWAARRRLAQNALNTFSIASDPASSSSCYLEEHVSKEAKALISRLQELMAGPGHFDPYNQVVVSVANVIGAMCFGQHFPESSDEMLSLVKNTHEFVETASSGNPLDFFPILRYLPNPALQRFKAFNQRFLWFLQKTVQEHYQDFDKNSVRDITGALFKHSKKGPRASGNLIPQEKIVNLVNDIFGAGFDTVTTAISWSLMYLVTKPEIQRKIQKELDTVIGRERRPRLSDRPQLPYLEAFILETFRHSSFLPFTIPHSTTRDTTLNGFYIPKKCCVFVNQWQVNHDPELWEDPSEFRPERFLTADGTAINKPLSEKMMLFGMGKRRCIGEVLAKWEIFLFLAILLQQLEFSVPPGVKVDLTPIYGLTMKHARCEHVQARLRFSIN

[3] = Unbound fraction in human plasma; type: ADME, cell-free
[4] = Kinetic solubility of the compound in phosphate buffer at pH 7.4 after 24 hrs by LC-MS analysis; type: physicochemical; settings: read-out: Kinetic_solubility
[5] = Cytotoxicity against human A549 cells assessed as cell viability after 72 hrs by resazurin staining-based fluorimetric analysis; settings: read-out: MIC
[6] = tested on: Mycobacterium tuberculosis; test: Bactericidal activity against hypoxia induced nonreplicating persistent Mycobacterium tuberculosis H37Rv after 7 days; type: functional; settings: 168 h
[7] = tested on: Mycobacterium tuberculosis; test: Bactericidal activity against Mycobacterium tuberculosis H37Rv ATCC 27294 after 5 days by microdilution method; type: functional; settings: H37Rv ATCC 27294, 120 h
Cytochrome P450 3A4 = Cytochrome P450 3A4 (Homo sapiens, UniProt P08684); test: Inhibition of human CYP3A4; type: ADME
[8] = target: Voltage-gated inwardly rectifying potassium channel KCNH2 (Homo sapiens, UniProt Q12809); test: Inhibition of human ERG
[9] = Inhibition of Mycobacterium smegmatis thioredoxin 6xHis-tagged decaprenylphosphoryl-beta-D-ribose2'-epimerase1 C394G mutant overexpressed in Escherichia coli rossetta cells using farnesyl-phosphoryl-beta-D-ribofuranose as substrate; set-up: species or system Mycolicibacterium smegmatis
[10] = Inhibition of Mycobacterium smegmatis thioredoxin 6xHis-tagged decaprenylphosphoryl-beta-D-ribose2'-epimerase1 Y321H mutant overexpressed in Escherichia coli rossetta cells using farnesyl-phosphoryl-beta-D-ribofuranose as substrate; set-up: species or system Mycolicibacterium smegmatis
[11] = AUC in BALB/C mouse infected with Mycobacterium tuberculosis H37Rv ATCC 27294 at 50 to 200 mg/kg, po qd administered for 24 days by LC-MS/MS analysis; type: ADME, organism-based; set-up: dose 50-200 mg/kg, route oral; settings: plasma
[12] = tested on: Mycobacterium tuberculosis; test: Antimicrobial activity against Mycobacterium tuberculosis H37Rv ATCC 27294 infected in BALB/C mouse chronic infection model assessed as reduced bacterial burden in lungs at 30 to 100 mg/kg, po administered on day 28 measured after 4 weeks; type: functional, Lung; settings: dose mg/kg 30-100
[13] = tested on: Mycobacterium tuberculosis; test: Bactericidal activity against Mycobacterium tuberculosis H37Rv ATCC 27294 infected in human THP1 cells assessed as reduction in CFU at 1 to 4 times MIC by time-kill method; type: functional, THP-1
[14] = tested on: Mycobacterium tuberculosis; test: Bactericidal activity against Mycobacterium tuberculosis H37Rv ATCC 27294 infected in human THP1 cells assessed as reduction in CFU at 1 to 4 times MIC at day 10 by time-kill method; type: functional, THP-1
[15] = tested on: Mycobacterium tuberculosis; test: Bactericidal activity against hypoxia induced nonreplicating persistent Mycobacterium tuberculosis H37Rv assessed as reduction in CFU at 30 times MIC; type: functional
Mus musculus = test: fT>MIC in BALB/C mouse infected with Mycobacterium tuberculosis H37Rv ATCC 27294 at 50 to 200 mg/kg, po qd after 10 to 24 hrs
[16] = tested on: Mycobacterium tuberculosis; test: Antimicrobial activity against po dosed Mycobacterium tuberculosis H37Rv ATCC 27294 infected BALB/C mouse chronic infection model assessed as reduced bacterial burden in lungs administered on day 28 measured after 4 weeks; type: functional, organism-based; settings: Lung
[17] = tested on: Mycobacterium tuberculosis; test: Antimicrobial activity against po dosed Mycobacterium tuberculosis H37Rv ATCC 27294 infected BALB/C mouse acute infection model assessed as reduced bacterial burden in lungs administered 3 days postinfection measured after 4 weeks; type: functional, organism-based; settings: Lung
[18] = tested on: Mycobacterium tuberculosis; test: Antimicrobial activity against Mycobacterium tuberculosis H37Rv ATCC 27294 infected in BALB/C mouse acute infection model assessed as reduced bacterial burden in lungs at 50 to 100 mg/kg, po administered 3 days postinfection measured after 4 weeks; type: functional, Lung; settings: dose mg/kg 50-100

Sequence of Voltage-gated inwardly rectifying potassium channel KCNH2 (Q12809 whole entry): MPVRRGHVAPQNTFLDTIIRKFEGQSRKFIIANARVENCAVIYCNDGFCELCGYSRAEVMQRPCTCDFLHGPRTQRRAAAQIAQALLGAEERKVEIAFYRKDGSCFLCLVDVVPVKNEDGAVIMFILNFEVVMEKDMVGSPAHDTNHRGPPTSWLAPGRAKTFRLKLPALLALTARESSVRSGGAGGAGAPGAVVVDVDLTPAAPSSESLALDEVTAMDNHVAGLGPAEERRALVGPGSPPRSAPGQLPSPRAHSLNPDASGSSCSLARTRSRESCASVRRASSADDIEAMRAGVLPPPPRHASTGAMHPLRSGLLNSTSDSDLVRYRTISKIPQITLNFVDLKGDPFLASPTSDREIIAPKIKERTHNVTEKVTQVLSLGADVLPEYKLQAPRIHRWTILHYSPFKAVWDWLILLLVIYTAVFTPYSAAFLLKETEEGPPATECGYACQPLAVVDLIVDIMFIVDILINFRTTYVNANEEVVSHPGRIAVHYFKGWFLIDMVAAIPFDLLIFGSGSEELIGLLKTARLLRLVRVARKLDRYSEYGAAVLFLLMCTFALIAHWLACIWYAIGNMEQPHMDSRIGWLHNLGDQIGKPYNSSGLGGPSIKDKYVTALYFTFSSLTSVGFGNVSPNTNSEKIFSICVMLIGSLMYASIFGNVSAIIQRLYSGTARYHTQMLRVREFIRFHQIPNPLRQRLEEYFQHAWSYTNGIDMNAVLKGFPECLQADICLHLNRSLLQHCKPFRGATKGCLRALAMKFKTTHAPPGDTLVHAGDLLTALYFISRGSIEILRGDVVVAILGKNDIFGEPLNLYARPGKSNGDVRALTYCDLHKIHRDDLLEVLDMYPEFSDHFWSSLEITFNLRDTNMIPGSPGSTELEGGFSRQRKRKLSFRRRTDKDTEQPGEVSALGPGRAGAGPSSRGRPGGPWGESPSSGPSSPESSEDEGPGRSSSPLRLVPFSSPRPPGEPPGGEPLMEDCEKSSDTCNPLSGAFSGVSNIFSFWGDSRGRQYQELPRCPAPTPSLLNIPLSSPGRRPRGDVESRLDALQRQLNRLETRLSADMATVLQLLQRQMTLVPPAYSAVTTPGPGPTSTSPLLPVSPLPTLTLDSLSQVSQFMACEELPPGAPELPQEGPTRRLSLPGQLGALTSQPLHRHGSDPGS
Sequence of Cytochrome P450 3A4 (P08684 whole entry): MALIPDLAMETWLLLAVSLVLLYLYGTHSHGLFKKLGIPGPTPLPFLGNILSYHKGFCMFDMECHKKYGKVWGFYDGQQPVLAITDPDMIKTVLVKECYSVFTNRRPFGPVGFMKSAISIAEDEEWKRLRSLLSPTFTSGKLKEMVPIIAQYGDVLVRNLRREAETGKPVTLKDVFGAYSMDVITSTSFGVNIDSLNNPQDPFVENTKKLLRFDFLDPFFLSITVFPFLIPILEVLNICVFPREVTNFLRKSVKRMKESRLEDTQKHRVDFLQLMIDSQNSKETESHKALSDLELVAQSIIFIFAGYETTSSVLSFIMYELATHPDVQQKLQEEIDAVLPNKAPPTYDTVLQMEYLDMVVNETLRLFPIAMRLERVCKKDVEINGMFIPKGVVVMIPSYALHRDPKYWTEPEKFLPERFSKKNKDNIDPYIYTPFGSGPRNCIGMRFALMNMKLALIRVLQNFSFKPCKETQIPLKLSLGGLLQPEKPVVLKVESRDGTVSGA
Sequence of Cytochrome P450 2C19 (P33261 whole entry): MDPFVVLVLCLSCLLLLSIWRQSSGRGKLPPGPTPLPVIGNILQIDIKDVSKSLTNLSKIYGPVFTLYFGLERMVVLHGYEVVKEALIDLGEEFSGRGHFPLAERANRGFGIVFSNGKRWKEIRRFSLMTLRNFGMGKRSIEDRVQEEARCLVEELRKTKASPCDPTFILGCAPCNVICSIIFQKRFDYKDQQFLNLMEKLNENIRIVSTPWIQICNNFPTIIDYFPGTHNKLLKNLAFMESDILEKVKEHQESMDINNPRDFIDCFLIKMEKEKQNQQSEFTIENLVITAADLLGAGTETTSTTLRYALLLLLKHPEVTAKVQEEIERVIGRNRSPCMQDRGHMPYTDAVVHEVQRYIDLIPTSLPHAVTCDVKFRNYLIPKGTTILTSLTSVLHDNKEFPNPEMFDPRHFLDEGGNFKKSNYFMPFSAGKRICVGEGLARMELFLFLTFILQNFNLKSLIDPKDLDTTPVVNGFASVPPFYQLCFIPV
Sequence of Cytochrome P450 2D6 (P10635 whole entry): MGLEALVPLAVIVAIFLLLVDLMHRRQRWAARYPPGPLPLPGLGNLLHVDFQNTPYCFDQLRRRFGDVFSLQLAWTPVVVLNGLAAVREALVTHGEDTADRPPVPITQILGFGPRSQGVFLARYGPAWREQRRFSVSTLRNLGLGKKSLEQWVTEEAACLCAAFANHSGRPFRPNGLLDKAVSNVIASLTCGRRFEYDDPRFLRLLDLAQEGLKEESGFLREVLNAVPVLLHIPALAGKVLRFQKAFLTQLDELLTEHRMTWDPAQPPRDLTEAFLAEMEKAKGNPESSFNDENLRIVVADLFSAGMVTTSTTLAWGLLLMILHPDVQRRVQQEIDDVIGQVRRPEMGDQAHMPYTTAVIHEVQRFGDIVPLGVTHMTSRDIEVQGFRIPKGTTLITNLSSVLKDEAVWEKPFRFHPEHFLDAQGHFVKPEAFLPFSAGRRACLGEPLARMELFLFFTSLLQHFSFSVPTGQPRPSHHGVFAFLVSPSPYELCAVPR
Sequence of Cytochrome P450 2C9 (P11712 whole entry): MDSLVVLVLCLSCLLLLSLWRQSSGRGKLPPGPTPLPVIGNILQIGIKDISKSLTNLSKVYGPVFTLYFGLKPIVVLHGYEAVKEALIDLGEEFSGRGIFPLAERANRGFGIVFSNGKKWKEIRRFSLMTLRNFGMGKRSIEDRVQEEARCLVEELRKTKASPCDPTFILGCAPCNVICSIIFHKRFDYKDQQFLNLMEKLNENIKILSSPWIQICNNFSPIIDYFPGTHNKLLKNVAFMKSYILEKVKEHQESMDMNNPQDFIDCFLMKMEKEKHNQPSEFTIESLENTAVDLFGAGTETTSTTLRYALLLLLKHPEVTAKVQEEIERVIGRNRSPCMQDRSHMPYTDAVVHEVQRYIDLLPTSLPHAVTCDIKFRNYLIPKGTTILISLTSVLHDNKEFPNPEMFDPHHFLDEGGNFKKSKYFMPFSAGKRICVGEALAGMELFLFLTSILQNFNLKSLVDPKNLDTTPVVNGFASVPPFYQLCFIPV

Structure (SMILES): Cc1cnc2c(C(=O)NCCF)cn(Cc3ncnc(N(C)C)c3C)c2c1
- IC50 [1]: 37 nM
- MIC [2]: 0.78 µM (≈ 0.289 µg/mL)

Structure (SMILES): Cc1ccc(Cn2cc(C(=O)NCC3CC3)c3ncccc32)cc1
- IC50 [1]: 21 nM
- MIC [2]: 13.2 µM (≈ 4.22 µg/mL)

Structure (SMILES): Cc1ccc(Cn2cc(C(=O)NCCF)c3ncccc32)c(C)c1
- IC50 [1]: 10 nM
- MIC [2]: 1.56 µM (≈ 0.508 µg/mL)

Structure (SMILES): COc1ccc(Cn2cc(C(=O)NCC3CC3)c3cnccc32)cc1
- IC50 [1]: 1000 nM
- MIC [2]: > 200 µM

Structure (SMILES): COc1ncnc(Cn2cc(C(=O)NCCF)c3ncc(C)cc32)c1C
- INH (Cytochrome P450 2D6): > 50 µM
- INH (Cytochrome P450 2C19): > 50 µM
- INH (Cytochrome P450 2C9): > 50 µM
- INH (Cytochrome P450 1A2): > 50 µM
- fraction unbound [3]: 0.05
- solubility kinetic at 24 h [4]: 4 µM (≈ 1.43 µg/mL)
- MCC at 72 h [5]: > 100 µM
- IC50 [1]: 3 nM
- MBC [6]: 100 µM (≈ 35.7 µg/mL)
- MBC [7]: < 0.39 µM
- MIC [2]: < 0.39 µM
- INH (Cytochrome P450 3A4): > 50 µM
- INH [8]: > 33 µM
- IC50 [9]: 7 nM
- IC50 [10]: > 10000 nM

Structure (SMILES): COc1cccc(F)c1Cn1cc(C(=O)NCC2CC2)c2ncccc21
- IC50 [1]: 6 nM
- MIC [2]: 1.56 µM (≈ 0.551 µg/mL)

Structure (SMILES): Cc1cccnc1Cn1cc(C(=O)NCC2CC2)c2ncccc21
- IC50 [1]: 83 nM
- MIC [2]: 27 µM (≈ 8.65 µg/mL)

Structure (SMILES): COc1ncnc(Cn2cc(C(=O)NCC3CC3)c3ncccc32)c1C
- AUC at 576 h [11]: 200 µM·h
- INH (Cytochrome P450 2D6): > 50 µM
- INH (Cytochrome P450 2C19): > 50 µM
- INH (Cytochrome P450 2C9): > 50 µM
- INH (Cytochrome P450 1A2): > 50 µM
- MCC at 72 h [5]: > 100 µM
- INH (Cytochrome P450 3A4): > 50 µM
- INH [8]: > 33 µM

Structure (SMILES): COc1ncnc(Cn2cc(C(=O)NCCF)c3ncccc32)c1C
- log10cfu [12]: >1.5
- log10cfu [13]: 1
- log10cfu [14]: 4
- log10cfu [15]: 1.5
- %T>MIC (Mus musculus): 25%
- AUC at 576 h [11]: 200 µM·h
- Activity [16]: Dose-dependent effect
- Activity [17]: Dose-dependent effect
- INH (Cytochrome P450 2D6): > 50 µM
- INH (Cytochrome P450 2C19): > 50 µM
- INH (Cytochrome P450 2C9): > 50 µM
- INH (Cytochrome P450 1A2): > 50 µM
- fraction unbound [3]: 0.098
- solubility kinetic at 24 h [4]: 8 µM (≈ 2.75 µg/mL)
- MCC at 72 h [5]: > 100 µM
- IC50 [1]: 10 nM
- MBC [6]: 50 µM (≈ 17.2 µg/mL)
- MBC [7]: 1.56 µM (≈ 0.536 µg/mL)
- MIC [2]: 1.56 µM (≈ 0.536 µg/mL)
- INH (Cytochrome P450 3A4): > 50 µM
- INH [8]: > 33 µM
- log10cfu [18]: >1.5
- IC50 [9]: 15 nM
- IC50 [10]: > 10000 nM

Structure (SMILES): Cc1ccccc1Cn1cc(C(=O)NCC2CC2)c2ncccc21
- MCC at 72 h [5]: 94 µM
- INH [8]: 28 µM

Structure (SMILES): COc1ccc(Cn2cc(C(=O)N(C)CC3CC3)c3ncccc32)cc1
- IC50 [1]: > 10000 nM
- MIC [2]: > 200 µM

Structure (SMILES): COc1ncnc(Cn2cc(C(=O)NCCO)c3ncc(C)cc32)c1C [TBA-7371]
- INH (Cytochrome P450 2D6): > 50 µM
- INH (Cytochrome P450 2C19): > 50 µM
- INH (Cytochrome P450 2C9): > 50 µM
- INH (Cytochrome P450 1A2): > 50 µM
- MCC at 72 h [5]: > 100 µM
- IC50 [1]: 10 nM
- MBC [6]: > 100 µM
- MBC [7]: 0.78 µM (≈ 0.277 µg/mL)
- MIC [2]: 1.56 µM (≈ 0.554 µg/mL)
- INH (Cytochrome P450 3A4): > 50 µM
- INH [8]: > 33 µM
- IC50 [9]: 10 nM
- IC50 [10]: > 10000 nM

Structure (SMILES): Cc1ccc(Cn2cc(C(=O)NCCc3ccncc3)c3ncccc32)c(C)c1
- IC50 [1]: 5500 nM
- MIC [2]: > 200 µM

Structure (SMILES): COc1ncnc(Cn2cc(C(=O)NCCO)c3ncccc32)c1C
- IC50 [1]: 90 nM
- MIC [2]: 14 µM (≈ 4.78 µg/mL)

Structure (SMILES): Cc1ccccc1Cn1cc(C(=O)NCCN2CCCCC2)c2ncccc21
- IC50 [1]: > 10000 nM
- MIC [2]: > 200 µM

Structure (SMILES): CCc1nc2cc(Cl)ccn2c1C(=O)NCc1ccc(N2CCN(c3ccc(F)cc3)CC2)cc1
- IC50 [1]: > 10000 nM
- MBC [6]: > 100 µM
- MBC [7]: > 200 µM
- MIC [2]: 0.017 µM (≈ 0.00836 µg/mL)

Structure (SMILES): Cc1c(Cn2cc(C(=O)NCCF)c3ncccc32)ncnc1N(C)C
- IC50 [1]: 20 nM
- MIC [2]: 6.25 µM (≈ 2.23 µg/mL)

Structure (SMILES): Cc1ccc(Cn2cc(C(=O)NCC3CCC(F)(F)CC3)c3ncccc32)c(C)c1
- IC50 [1]: 7900 nM
- MIC [2]: > 200 µM

Structure (SMILES): COc1ccc(Cn2cc(C(=O)NCC3CC3)c3ncccc32)cc1
- IC50 [1]: 7 nM
- MIC [2]: 6.25 µM (≈ 2.1 µg/mL)

Structure (SMILES): O=C(NCC1CC1)c1cn(CC2CCOCC2)c2cccnc12
- IC50 [1]: 2500 nM
- MIC [2]: > 100 µM

Structure (SMILES): COc1ncnc(Cn2cc(C(=O)NC[C@@H](C)F)c3ncccc32)c1C
- MIC [2]: 0.78 µM (≈ 0.279 µg/mL)

Structure (SMILES): COCCNC(=O)c1cn(Cc2cc(F)cnc2OC)c2cccnc12
- IC50 [1]: 4 nM
- MIC [2]: 0.78 µM (≈ 0.28 µg/mL)

Structure (SMILES): COc1ncnc(Cn2cc(C(=O)NC[C@H](C)F)c3ncc(C)cc32)c1C
- IC50 [1]: 14 nM
- MIC [2]: 0.156 µM (≈ 0.0579 µg/mL)
